Results on 4 compounds are retold here after ChEMBL document CHEMBL1142426, “Design and synthesis of macrocyclic peptidyl hydroxamates as peptide deformylase inhibitors” (2008).

Molecules are shown by their SMILES. Converted amounts (≈) assume the structure as drawn. The source made the active and inactive calls. No cut-off for these calls is given here.

The subject of one test is Escherichia coli. Put plainly: Antimicrobial activity against Escherichia coli. It counts as functional.
Test [1] addresses T1, Peptide deformylase (Escherichia coli) (UniProt Q9JN24).
T1 sequence (whole entry): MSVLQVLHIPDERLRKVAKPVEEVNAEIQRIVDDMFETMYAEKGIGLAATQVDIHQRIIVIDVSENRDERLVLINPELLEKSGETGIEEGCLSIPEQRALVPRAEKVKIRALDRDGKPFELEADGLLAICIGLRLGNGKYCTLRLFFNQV
Nature of the test: Inhibition of cobalt-substituted Escherichia coli PDF.

Test [2] has as its target T1, Peptide deformylase (Escherichia coli). Nature of the test: Slow-binding inhibition of cobalt-substituted Escherichia coli PDF.
A further test deals with Bacillus subtilis. Put plainly: Antimicrobial activity against Bacillus subtilis. The test is classed as functional.

As to `CC(C)(C)[C@@H]1NC(=O)[C@@H](CC(=O)NO)CCCCCCCCCNC1=O`, the minimum inhibitory concentration (MIC) is above 24 µg/mL in the test with Escherichia coli and 2 µg/mL (≈ 5.41 µM) with Bacillus subtilis. The Ki in test [1] was 210 nM; in test [2], 4.4 nM.

Regarding `CC(C)(C)[C@@H]1NC(=O)[C@@H](CN(O)C=O)CCCCCCCCCNC1=O`, the values for the Ki in test [1] and in test [2] were 109 nM and 0.33 nM, respectively.

In turn, `CC(C)(C)[C@@H]1NC(=O)[C@@H](CC(=O)NO)NC(=O)CCCCCCCCCNC1=O` gave a Ki in test [1] above 20000 nM.

For `O=C(C[C@H]1CCCCCCCCCNC(=O)[C@@H]2CCCN2C1=O)NO`, the outcome in the test with Escherichia coli was inactive. The values for the Ki in test [1] and in test [2] were 16000 nM and 1400 nM, respectively. Besides, the MIC against Bacillus subtilis was above 24 µg/mL.

The MIC is the lowest concentration found to suppress growth. Low readings indicate greater potency, high ones weaker potency. A word on the Ki: it is a dissociation constant, usually derived from enzyme kinetics or from competition with a known ligand.
